Laboratory results published in US4226885A, “Guanylhydrazones and medicaments containing them” (Choay S.A., priority 1977, dated 1980).
Where two headings read alike, the source gives them in different places.

Legend:
[1] = biological target: rat liver monoaminoxydase; test: I.M.A.O. activity: inhibition of rat liver monoaminoxydase (spectrophotometric, kynuramine as substratum); assay type: biochemical; settings: 50% inhibition
Procedure: The inhibiting activity of the envisaged guanyl hydrazones in relation to rat liver monoaminoxydase was determined by means of a spectrophotometric method, using kynuramine as substratum.
The I.M.A.O. activity was determined for various concentrations of guanyl hydrazone. The concentrations for which one obtains 50% inhibition relate to the pI 50, which is calculated as follows: […]
For each concentration about ten experiments are carried out, from which the mean activity Yi is determined. Only concentrations giving a Yi between 15 and 85% of activity are retained.
Assume N concentrations Ci retained; to each Ci there correspond a certain number ni of experiments and a mean activity Yi.
Assume in all NT=Σni experiments.
(a) The equation of the straight line Yi =f (Ci) is calculated by the method of least squares.
To this straight line there are attached different statistic tests to express its validity, as straight line only.
Then the corresponding concentration is deduced for Y=50%.
(b) Statistical calculations permit evaluation of the legitimacy of the linear model. These calculations take account of all the points, that is to say NT experiments, whereas the straight line is determined from the mean activities only, which means that these calculations take account of the dispersion which affects every average.
(c) Calculation of the confidence interval for α=0.05.
The pI50 s of the compounds 1 to 7 appearing in Table I above were calculated by application of the method as just described; they have been listed in Table II below: […]

[2] = system: Lipidium sativum; test: Inhibition of the growth of the root meristem of Lipidium sativum (vegetable cells); assay type: in vivo; settings: for IC50: 50% inhibition of root growth, 24 hours, 27° C., darkness, read-out: pI 50 (guanyl hydrazones) (converted); for inhibiting activity (root growth, in words): Lipidium sativum test
Procedure: The test of the inhibition of the growth of the root meristem of Lipidium sativum was used, which test is used to evaluate the cytostatic action of series of drugs. It consists in placing germinated grains of Lipidium sativum in 15 ml. of aqueous solution containing 1% of methyl cellulose, in which the guanyl hydrazones are placed in suspension.
After leaving in darkness for 24 hours at the temperature of 27° C., the elongation of the root in comparison with that of a control batch (Li Lipidium sativum grain in methyl cellulose medium) is determined.
The validity of the linear model was evaluated with the aid of test F: [formula]
In the example supplied, for the calculation of the confidence interval for α=0.05, one finds:
that is to say one has five chances per hundred, if one repeats another series of measurements, of finding a pI 50 outside this limit.

[3] = system: fibro-sarcomas induced by methyl cholanthrene, tumour cells in culture; test: Tumour culture: inhibition of multiplication of methyl cholanthrene-induced fibro-sarcoma cells in vitro; assay type: cell-based; settings: Rattus norvegicus; for inhibition at 10 µM: 10^-5 molar; for inhibition at 1 µM: 10^-6 molar
Procedure: (§1) A supplementary study of the activity of these products upon the inhibition of growth of animal cells was effected by tumour culture. On fibro-sarcomas induced by methyl cholanthrene (O. Flandre et coll. C.R. Jour. biol. 1966. 160 152) the products were tested: upon tumour cells in culture "in vitro" and upon treated rats.
1. upon tumour cells in culture "in vitro" the results of the tested products are reported in Table IV below, which expresses the cellular count at the 72nd hour after sub-culture, in the presence of the substances to be studied.
The results are expressed in percentage of diminution of the number of cells in comparison with the control.
The determinations were effected with the products at three molar concentrations: 10^-4, 10^-5 and 10^-6.
This concerns fibro-sarcomas induced by methyl cholanthrene according to a technique described by O. FLANDRE, I. CIURANA, J. SECCHI and M. DAMON: Reports of the Sittings of the Biology Society, Volume 160, No. 1, 1966, page 152.
The products can be tested either upon tumour cells cultivated in vitro, or upon the rat treated by tumour cell injections either in situ or by intraperitoneal injection.
The preliminary experiments carried out with the substances according to the invention, tested on tumour cells cultivated in vitro, disclose a retardation of the cellular multiplication.

[4] = system: platelet aggregation; test: Platelet anti-aggregant action (BORN's method); assay type: cell-based, human or rabbit
Procedure: The determination of the platelet aggregability was effected according to BORN's method, using a LABINTEC aggregometer.
Firstly a platelet-rich plasma (or PRP) and next a platelet-poor plasma (or PPP or PDP) are prepared from human blood or rabbit's blood, and the apparatus is calibrated.
Then the aggregating power of the plasma (PRP) is determined in relation to the PDP in the presence and in the absence of guanyl hydrazone. Thus it is possible to determine the percentage of inhibition of platelet aggregation as a function of the concentration. The curves obtained permit of determining a pI 50. […]

[5] = system: fibro-sarcoma induced by methyl cholanthrene; test: Development of a fibro-sarcoma induced by methyl cholanthrene in vivo in the rat; settings: daily 50 mg./kg in two doses, over three months, vs untreated rats
Procedure: as §1
2. Inhibiting action upon the development of a fibro-sarcoma induced by methyl cholanthrene "in vivo" in the rat.

[6] = system: Rat fibroblast cultures; test: Action upon cultures of trypsinised fibroblasts; assay type: cell-based; settings: read-out: percentage of inhibition in comparison with the control, heading: percentage of inhibition in comparison with the control, 10^-4 M, 48 and 72 hours
Procedure: Rat fibroblast cultures are concerned and the strains have been maintained for several years.
For single-layer cultivation in Roux flasks, Trypsinisation at 0.25% detaches the cells from the flask on the one hand and from one another on the other hand.
The cells are distributed in lamellated tubes at the rate of 250,000 cells per ml., where they are deposited.
The products to be tested are introduced at different dilutions, and left to act for 48 and 72 hours.
Next, the counting of the cells is effected (10 fields for 5 blades) and the results obtained are compared with control tumours which have not received the product to be tested.

[7] = system: rat embryo cultures (muscle fragment); test: Culture in explants: mitotic index of rat embryo cultures; assay type: cell-based
Procedure: This concerns rat embryo cultures kept for at least 6 months (muscle fragment). The explants are placed in culture in plasma coagulum (cock plasma). The cultures are fed with nutrient medium (Hanx+embryonary extract+decomplemented calf foetus serum). 24 hours after placing in plasma coagulum, the product to be tested is added at different dilutions. The cultures are examined on the 4th day and the counting of the number of mitoses is effected in the growth zone of the explants. The percentage of each of the phases of the mitosis is determined for the whole (mitotic index).

[8] = system: ADN; settings: cited from earlier work
[9] = system: synthesis of nucleic acids; settings: cited from earlier work
[10] = system: leukaemias, Hodgkin's disease; settings: cited from earlier work
[11] = 72 h, 10^-4 molar, 72nd hour after sub-culture, read-out: percentage of diminution of the number of cells in comparison with the control
[12] = 72 h, 72nd hour after sub-culture, read-out: percentage of diminution of the number of cells in comparison with the control
[13] = platelet-rich plasma, human blood or rabbit's blood, Table V, read-out: PI50 (platelet aggregation) (converted)
[14] = concentration of 10^-4 mol, read-out: retardation of the cellular multiplication

SMILES	IC50 [2]	inhibition at 100 µM [3, 11]	inhibition at 10 µM [3, 12]	inhibition at 1 µM [3, 12]	IC50 [4, 13]	inhibiting activity (root growth, in words) [2]	inhibition at 100 µM [3, 14]	further results
COc1cccc(OCC=NNC(=N)N)c1 [Compound 6]	191 µM	18.4%	12.6%	0%				pI 50 [1]: 5.16
COc1ccc(OCC=NNC(=N)N)cc1 [Compound 7]	102 µM	15.8%	15.3%	0%	1380 µM			pI 50 [1]: 4.50
Cc1ccccc1OCC=NNC(=N)N [Compound 8]	38.9 µM	10.7%	7.89%	0%	525 µM	great inhibiting activity		
Cc1cccc(OCC=NNC(=N)N)c1 [Compound 9]	26.3 µM	32.1%	13.2%	10.5%	692 µM	great inhibiting activity	> 30%	
Cc1ccc(OCC=NNC(=N)N)cc1 [Compound 10, p-methyl phenoxy acetaldehyde guanyl hydrazone]	58.9 µM	25%	23.7%	0%	813 µM			
CC(C)c1ccccc1OCC=NNC(=N)N [Compound 11]	39.8 µM	78.6%	42.1%	18.4%		great inhibiting activity	> 30%	development of the tumours (weight estimations) [5]: clearly retarded; inhibition at 100 µM [6]: ~100%; mitotic index ([7]; 4th day, control culture 2.5%): 1.9%; number of mitoses at the metaphase level ([7]; vs control culture): significant reduction of the number of mitoses at the metaphase level
N=C(N)NN=CCOc1ccc(Br)cc1 [Compound 12]	2.88 µM	57.1%	40.4%	0%	562 µM	great inhibiting activity	> 30%	development of the tumours (weight estimations) [5]: clearly retarded
N=C(N)NN=CCOc1ccc(F)cc1 [Compound 13]					977 µM			
CC(=O)Oc1ccccc1C(=O)O [Lysine acetylsalicylate, reference compound]								IC50 ([4]; Platelet, read-out: PI50 (platelet aggregation)): 51300 µM
CC(C=NNC(=N)N)=NNC(=N)N [methyl-glyoxal-bis (guanyl hydrazone)]								complex formation with ADN [8]: forms complexes with ADN; inhibition of nucleic acid synthesis [9]: inhibits the synthesis of nucleic acids; action in Hodgkin's disease ([10]; Hodgkin's disease): sometimes but rarely efficacious; action in acute myeloblastic and promyelocytary leukaemias ([10]; acute myeloblastic and promyelocytary leukaemias): action has been verified; action in acute transformations of chronic myeloid leukaemia and other leukaemias ([10]; acute transformations of chronic myeloid leukaemia and other leukaemias): less efficacious; side effects on administration ([10]; in vivo): various cutaneous, digestive and metabolic troubles, in particular hypoglycaemia
